Read-outs that look alike come from different tables or passages of the source.
Target: human P2X7 receptor (Homo sapiens, UniProt Q99572, R270H/Y155H)
Experiment: Evaluation of human P2X7 receptor inhibitory activity (Yo-Pro uptake, BzATP stimulation, FLIPR TETRA)
Type: cell-based
Conditions: 1321N1 cells stably expressing human P2X7 receptor, BzATP stimulation, Yo-Pro uptake
Procedure, shortened: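 1321N1 cells stably expressing human P2X7 (T606C/G952A SNP variant), in HBSS buffer pH 7.4-7.5 with Yo-Pro, stimulated with BzATP; compound added 8 min after agonist. Fluorescence followed for 20 min on FLIPR; max-minus-min change gave % inhibition, IC50 by logistic fit.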

[1] = read-out: IC50 (antagonistic activity for the human P2X7 receptor), class symbol
[2] = read-out: IC50 (antagonistic activity for the human P2X7 receptor)

SMILES	IC50 [1] [µM]	IC50 [2] [µM]
COc1cc(C)c(Nc2nc(=O)c(OC)cn2Cc2ccccc2)cc1OC [Compound I-0182]	< 0.01	
COc1cc(C)c(Nc2nc(=O)c(F)cn2Cc2ccccc2)cc1OC [Compound I-0183]	0.01 to 0.1	
COc1cn(Cc2ccccc2)c(Nc2ccc(Br)cc2Cc2ccccc2)nc1=O [Compound I-0184]	0.1 to 0.5	
COc1cn(Cc2ccccc2)c(Nc2cncc(Cl)c2C)nc1=O [Compound I-0185]		0.27
CCc1cc2c(cc1Nc1nc(=O)c(F)cn1Cc1ccc(F)cc1)CCC2 [Compound I-0186]		0.002
COc1cn(Cc2ccccc2)c(NC2CCc3ccccc3C2)nc1=O (stereo not shown) [Compound I-0187]		0.23
COc1cn(Cc2ccccc2)c(Nc2cccc3c2CCCC3)nc1=O [Compound I-0190]		0.071
COc1cn(Cc2ccccc2)c(Nc2ccc(OC(C)C)cc2C)nc1=O [Compound I-0191]	0.1 to 0.5	
COc1cn(Cc2ccccc2Cl)c(Nc2cc(C)c(C)cc2C)nc1=O [Compound I-0192]	0.01 to 0.1	
COc1cn(Cc2ccc(Cl)cc2)c(Nc2cc(C)c(C)cc2C)nc1=O [Compound I-0193]		0.018
CCc1cc2c(cc1Nc1nc(=O)c(OC)cn1Cc1ccccc1Cl)CCC2 [Compound I-0194]	0.01 to 0.1	
CCc1cc2c(cc1Nc1nc(=O)c(OC)cn1Cc1ccc(Cl)cc1)CCC2 [Compound I-0195]		0.026
CCOC(=O)c1cn(Cc2ccccc2)c(Nc2cc(C)c(C)cc2C)nc1=O [Compound I-0196]		0.013
COc1cn(Cc2ccccc2)c(Nc2cccc(Oc3ccccn3)c2C)nc1=O [Compound I-0198]	0.1 to 0.5	
CCc1ccccc1Nc1nc(=O)c(OC)cn1Cc1ccc(F)cc1 [Compound I-0200]	0.01 to 0.1	
COc1cn(Cc2ccccc2)c(N[C@@H]2CCc3ccccc32)nc1=O [Compound I-0201]	0.5 to 1	
Cc1c(Cl)cccc1Nc1nc(=O)c(O)cn1Cc1ccccc1 [Compound I-0203]		0.018
COc1cn(Cc2ccccc2)c(Nc2ccc(N3CCOCC3)cc2C)nc1=O [Compound I-0204]	0.1 to 0.5	
Cc1cc(C)c(Nc2nc(=O)c(C(=O)O)cn2Cc2ccccc2)cc1C [Compound I-0205]		0.091
CCOc1cc(C)c(Nc2nc(=O)c(OC)cn2Cc2ccccc2)cc1C [Compound I-0206]	0.01 to 0.1	
Cc1ccc(N2CCCS2(=O)=O)cc1Nc1nc(=O)c(F)cn1Cc1ccc(F)cc1 [Compound I-0207]		0.009

SMILES	IC50 [1] [µM]	IC50 [2] [µM]
COc1cc(C)c(Nc2nc(=O)c(OC)cn2Cc2cccc(Cl)c2)cc1OC [Compound I-0208]	< 0.01	
COc1cc(C)c(Nc2nc(=O)c(F)cn2Cc2ccc(F)cc2)cc1OC [Compound I-0209]	< 0.01	
CCc1ccc(Nc2nc(=O)c(OC)cn2Cc2ccccc2)c(CC)c1 [Compound I-0210]	0.01 to 0.1	
CCc1ccc(CC)c(Nc2nc(=O)c(OC)cn2Cc2ccccc2)c1 [Compound I-0211]	< 0.01	
CCc1c(Nc2nc(=O)c(OC)cn2Cc2ccccc2)cccc1OC [Compound I-0212]	< 0.01	
CCc1c(Nc2nc(=O)c(OC)cn2Cc2ccc(F)cc2)cccc1OC [Compound I-0213]	< 0.01	
CCc1c(Nc2nc(=O)c(OC)cn2Cc2cccc(Cl)c2)cccc1OC [Compound I-0214]	< 0.01	
CCc1c(Cl)cccc1Nc1nc(=O)c(OC)cn1Cc1ccccc1 [Compound I-0215]	< 0.01	
Cc1c(Cl)cccc1Nc1nc(=O)c(C(F)(F)F)cn1Cc1ccccc1 [Compound I-0216]	0.1 to 0.5	
COc1cn(Cc2ccccc2)c(Nc2cccc(N(C)C)c2C)nc1=O [Compound I-0217]	0.01 to 0.1	
Cc1cc(C)c(Nc2nc(=O)c(C(N)=O)cn2Cc2ccccc2)cc1C [Compound I-0218]		0.019
Cc1cc(C)c(Nc2nc(=O)c(C(=O)NC3CCOCC3)cn2Cc2ccccc2)cc1C [Compound I-0219]	0.01 to 0.1	
COc1cc(C)c(Nc2nc(=O)c(OC)cn2Cc2ccccc2)cc1C [Compound I-0220]	< 0.01	
COc1cn(Cc2ccccc2)c(Nc2cc3[nH]ncc3cc2C)nc1=O [Compound I-0221]	0.01 to 0.1	
COc1cn(Cc2ccc(F)c(F)c2)c(Nc2cccc(Cl)c2C)nc1=O [Compound I-0222]	< 0.01	
CCc1ccccc1Nc1nc(=O)c(F)cn1Cc1cccc(Cl)c1 [Compound I-0223]	0.01 to 0.1	
Cc1cccc(Nc2nc(=O)c(F)cn2Cc2cccc(Cl)c2)c1C [Compound I-0224]	< 0.01	
CCc1ccccc1Nc1nc(=O)c(OC)cn1Cc1ccc(Cl)c(F)c1 [Compound I-0225]	0.1 to 0.5	
Cc1cc(C)c(Nc2nc(=O)c(C(=O)NCC(=O)N(C)C)cn2Cc2ccccc2)cc1C [Compound I-0226]	0.01 to 0.1	
COc1ccc(Nc2nc(=O)c(OC)cn2Cc2ccc(F)c(Cl)c2)c(C)c1 [Compound I-0227]	0.01 to 0.1	
COc1cn(Cc2ccc(F)c(Cl)c2)c(Nc2cc(C(C)C)ccc2C)nc1=O [Compound I-0228]	0.01 to 0.1	

SMILES	IC50 [1] [µM]	IC50 [2] [µM]
COc1cc(C)c(Nc2nc(=O)c(OC)cn2Cc2ccc(F)c(Cl)c2)cc1OC [Compound I-0229]	< 0.01	
COc1cc(C)c(Nc2nc(=O)c(OC)cn2Cc2ccc(F)c(Cl)c2)cc1C [Compound I-0230]	< 0.01	
CCOc1cc(C)c(Nc2nc(=O)c(OC)cn2Cc2ccc(F)c(Cl)c2)cc1C [Compound I-0231]	< 0.01	
COc1cn(Cc2ccc(F)c(Cl)c2)c(Nc2cc(N3CCCS3(=O)=O)ccc2C)nc1=O [Compound I-0232]	< 0.01	
COc1cn(Cc2ccccc2)c(Nc2cc(C)c(Cl)cc2C)nc1=O [Compound I-0233]	< 0.01	
COc1ccc(Nc2nc(=O)c(OC)cn2Cc2cccc(Cl)c2)c(C)c1 [Compound I-0234]	0.01 to 0.1	
CCc1cc(OC)ccc1Nc1nc(=O)c(OC)cn1Cc1ccccc1 [Compound I-0235]	0.01 to 0.1	
CCc1ccc(OC)cc1Nc1nc(=O)c(OC)cn1Cc1ccccc1 [Compound I-0236]	0.01 to 0.1	
COc1cn(Cc2ccccc2)c(Nc2cc(C)c(OC(F)F)cc2C)nc1=O [Compound I-0237]	< 0.01	
Cc1c(Cl)cccc1NC(=O)Cc1cn(Cc2ccccc2)c(Nc2cccc(Cl)c2C)nc1=O [Compound I-0238]	0.1 to 0.5	
COc1cn(Cc2ccccc2)c(Nc2cc(-n3cccc3)ccc2C)nc1=O [Compound I-0239]	0.1 to 0.5	
COc1cn(Cc2ccccc2)c(Nc2cc(-c3nnco3)ccc2C)nc1=O [Compound I-0240]	0.01 to 0.1	
COc1cn(Cc2ccc(F)c(Cl)c2)c(Nc2ccc(OC(F)(F)F)cc2C)nc1=O [Compound I-0241]	0.01 to 0.1	
CCc1cc2c(cc1Nc1nc(=O)c(OC)cn1Cc1ccc(F)c(Cl)c1)CCC2 [Compound I-0242]		0.012
COc1cn(Cc2ccc(F)c(Cl)c2)c(Nc2cc(C)c(C)cc2C)nc1=O [Compound I-0243]	< 0.01	
COc1cn(Cc2ccc(F)c(Cl)c2)c(Nc2cc(C)c(OC(F)F)cc2C)nc1=O [Compound I-0244]	< 0.01	
CCc1cc(OC)ccc1Nc1nc(=O)c(OC)cn1Cc1ccc(F)c(Cl)c1 [Compound I-0245]	< 0.01	
CCc1ccc(OC)cc1Nc1nc(=O)c(OC)cn1Cc1ccc(F)c(Cl)c1 [Compound I-0246]	< 0.01	
COc1cn(Cc2ccc(F)c(Cl)c2)c(Nc2cc(CO)c(C)cc2C)nc1=O [Compound I-0247]	< 0.01	
COc1cn(Cc2ccc(F)c(Cl)c2)c(Nc2ccc(N(C)C)cc2C)nc1=O [Compound I-0248]	0.01 to 0.1	
COc1ccc(Nc2nc(=O)c(OC)cn2Cc2cccc(F)c2)c(C)c1 [Compound I-0249]	< 0.01	

SMILES	IC50 [1] [µM]	IC50 [2] [µM]
COc1cc(C)c(Nc2nc(=O)c(OC)cn2Cc2cccc(Cl)c2)cc1C [Compound I-0250]	< 0.01	
CCc1ccc(OC)cc1Nc1nc(=O)c(OC)cn1Cc1cccc(F)c1 [Compound I-0251]	0.01 to 0.1	
CCc1ccccc1Nc1nc(=O)c(OC)cn1Cc1ccc(F)c(Cl)c1 [Compound I-0252]	< 0.01	
CCc1ccc(OC)cc1Nc1nc(=O)c(OC)cn1Cc1ccc(F)cc1 [Compound I-0253]	0.01 to 0.1	
CCc1ccc(OC)cc1Nc1nc(=O)c(OC)cn1Cc1cccc(Cl)c1 [Compound I-0254]	0.01 to 0.1	
CCc1ccc(OC)cc1Nc1nc(=O)c(OC)cn1Cc1ccc(F)c(F)c1 [Compound I-0255]	< 0.01	
CCc1cc(OC)c(OC)cc1Nc1nc(=O)c(OC)cn1Cc1ccccc1 [Compound I-0256]	< 0.01	
CCOc1cc(C)c(Nc2nc(=O)c(OC)cn2Cc2cccc(F)c2)cc1C [Compound I-0257]	< 0.01	
CCOc1cc(C)c(Nc2nc(=O)c(OC)cn2Cc2ccc(F)cc2)cc1C [Compound I-0258]	< 0.01	
CCOc1cc(C)c(Nc2nc(=O)c(OC)cn2Cc2cccc(Cl)c2)cc1C [Compound I-0259]	< 0.01	
CCOc1cc(C)c(Nc2nc(=O)c(OC)cn2Cc2ccc(F)c(F)c2)cc1C [Compound I-0260]	< 0.01	
CCc1cc(OC)ccc1Nc1nc(=O)c(OC)cn1Cc1cccc(F)c1 [Compound I-0261]	< 0.01	
CCc1cc(OC)ccc1Nc1nc(=O)c(OC)cn1Cc1ccc(F)cc1 [Compound I-0262]	< 0.01	
CCc1cc(OC)ccc1Nc1nc(=O)c(OC)cn1Cc1cccc(Cl)c1 [Compound I-0263]	< 0.01	
CCc1cc(OC)ccc1Nc1nc(=O)c(OC)cn1Cc1ccc(F)c(F)c1 [Compound I-0264]	< 0.01	
CCc1cc(C)c(C)cc1Nc1nc(=O)c(OC)cn1Cc1ccccc1 [Compound I-0265]	< 0.01	
CCc1cc(OC)c(OC)cc1Nc1nc(=O)c(F)cn1Cc1ccccc1 [Compound I-0266]	< 0.01	
CCc1cc(OC)c(OC)cc1Nc1nc(=O)c(F)cn1Cc1ccc(F)cc1 [Compound I-0267]	< 0.01	
CCc1cc(OC)c(OC)cc1Nc1nc(=O)c(F)cn1Cc1ccc(F)c(Cl)c1 [Compound I-0268]	< 0.01	
